This is an account of results in patent publication US10640536B2, “Polymyxins, compositions, methods of making and methods of use” (XELLIA PHARMACEUTICALS APS, priority 2013, dated 2020).

Holding throughout (type): cell-based
Experiment [1] concerns Acinetobacter baumannii colistin-sensitive. The procedure: (§1) The deca sulfomethylated polymyxins were tested for antibacterial activity by determining the minimal inhibitory concentration (MIC) by use of the broth dilution method according to EUCAST. […] indicator organism were used e.g. Acinetobacter baumannii colistin-sensitive, Klebsiella pneumonia #3010, Pseudomonas aeruginosa ATCC27853, Escherichia coli ATCC25922 and Escherichia coli DSA443. The tests were performed at, Statens Serum Institut, Copenhagen, Denmark department for Microbiology and Infection Control.
(§2) The concentration range used was 0.125-128 μg/mL. Gentamicin was included as a positive quality control. Preparation of Gentamicin: 1000 μg/mL stock solution: 0.125 ml of a 40 mg/mL solution of Hexamicin+4.875 mL sterile water. 128 μg/mL: 0.640 mL of “1000 μg/mL stock solution”+4.36 mL Müeller-Hinton broth (MHB).
(§3) Preparation of compounds disclosed herein: 5 mg/ml stock solution: one vial of 5 mg was added 1.0 mL sterile water. 512 μg/mL solution: 0.205 mL of “5 mg/mL stock solution”+1.795 mL MHB
(§4) Preparation of inoculum: Fresh overnight colonies from 5% horse blood agar plates were suspended to a turbidity of 0.5 McFarland and further diluted in Müeller-Hinton broth to 1×10^6 CFU/ml. A total of 50 μL diluted bacterial suspension (Müeller Hinton BBL II-broth, SSI) was added to wells containing 50 μL of two fold compounds described herein or gentamicin dilutions. All compounds were tested in triplicate. The plates were incubated at 35° C., 16-20 h.

For experiment [2], the system named is Escherichia coli ATCC25922. Here is the method:
as §1, §2, §3, §4

In experiment [3] the test system is Klebsiella pneumonia #3010. The procedure: as §1, §2, §3, §4
In experiment [4] the test system is Pseudomonas aeruginosa ATCC27853. The procedure:
as §1, §2, §3, §4

For another experiment, the system named is Escherichia coli DSA443. As to the kind of experiment: MIC by broth dilution method according to EUCAST. As to conditions: Table 3, 35° C., 16-20 h. The procedure:
as §1, §2, §3
Preparation of inoculum: Fresh overnight colonies from 5% horse blood agar plates were suspended to a turbidity of 0.5 McFarland and further diluted in Müeller-Hinton broth to 1×10^6 CFU/ml. A total of 50 μL diluted bacterial suspension (Müeller Hinton BBL II-broth, SSI) was added to wells containing 50 μL of two fold compounds described herein or gentamicin dilutions. […]
(In general: Broth dilution looks for growth in wells or tubes with falling amounts of substance.)

Where [5] appears, read: Table 3, broth dilution, 35° C., 16-20 h.

In brackets after ≈: the same amount, converted by molar mass. Where two headings read alike, the source gives them in different places. Where only a bound is given, the exact number is not on record here.

Take `CC[C@H](C)CCCCC(=O)N[C@@H](CCN(CS(=O)(=O)O)CS(=O)(=O)O)C(=O)N[C@H](C(=O)N[C@@H](CCN(CS(=O)(=O)O)CS(=O)(=O)O)C(=O)N[C@H]1CCNC(=O)[C@H]([C@@H](C)O)NC(=O)[C@H](CCN(CS(=O)(=O)O)CS(=O)(=O)O)NC(=O)[C@H](CCN(CS(=O)(=O)O)CS(=O)(=O)O)NC(=O)[C@H](CC(C)C)NC(=O)[C@@H](CC(C)C)NC(=O)[C@H](CCN(CS(=O)(=O)O)CS(=O)(=O)O)NC1=O)[C@@H](C)O` [Example 1, Penta (Nγ-Bis-Sulfomethyl) DAB1,3,5,8,9 Polymyxin E1]: in experiment [1] (colistin-sensitive), the “MIC A. baumannii ColistinS” value turned out to be 4 µg/mL (≈ 1.9 µM). Also, the “MIC E. coli ATCC 25922” value in experiment [2] (ATCC25922) turned out to be 8 µg/mL (≈ 3.79 µM). The “MIC K. pneumonia #3010” value in experiment [3] was 16 µg/mL (≈ 7.58 µM). The “MIC P. aeruginosa ATCC 27853” value in experiment [4] (ATCC27853) stood at 8 µg/mL (≈ 3.79 µM).

Consider `CC(C)CCCCC(=O)N[C@@H](CCN(CS(=O)(=O)O)CS(=O)(=O)O)C(=O)N[C@H](C(=O)N[C@@H](CCN(CS(=O)(=O)O)CS(=O)(=O)O)C(=O)N[C@H]1CCNC(=O)[C@H]([C@@H](C)O)NC(=O)[C@H](CCN(CS(=O)(=O)O)CS(=O)(=O)O)NC(=O)[C@H](CCN(CS(=O)(=O)O)CS(=O)(=O)O)NC(=O)[C@H](CC(C)C)NC(=O)[C@@H](CC(C)C)NC(=O)[C@H](CCN(CS(=O)(=O)O)CS(=O)(=O)O)NC1=O)[C@@H](C)O` [Example 2, Penta (Nγ-Bis-Sulfomethyl) DAB1,3,5,8,9 Polymyxin E2], for which the “MIC A. baumannii ColistinS” value in experiment [1] (colistin-sensitive) worked out at 4 µg/mL (≈ 1.91 µM). Besides, the “MIC E. coli ATCC 25922” value in experiment [2] (ATCC25922) amounted to 8 µg/mL (≈ 3.82 µM). In addition, the “MIC K. pneumonia #3010” value in experiment [3] is 16 µg/mL (≈ 7.63 µM). In experiment [4] (ATCC27853), the “MIC P. aeruginosa ATCC 27853” value was found to be 8 µg/mL (≈ 3.82 µM).

With `CC[C@H](C)CCCCC(=O)N[C@@H](CCN(CS(=O)(=O)O)CS(=O)(=O)O)C(=O)N[C@H](C(=O)N[C@@H](CCN(CS(=O)(=O)O)CS(=O)(=O)O)C(=O)N[C@H]1CCNC(=O)[C@H]([C@@H](C)O)NC(=O)[C@H](CCN(CS(=O)(=O)O)CS(=O)(=O)O)NC(=O)[C@H](CCN(CS(=O)(=O)O)CS(=O)(=O)O)NC(=O)[C@H]([C@@H](C)CC)NC(=O)[C@@H](CC(C)C)NC(=O)[C@H](CCN(CS(=O)(=O)O)CS(=O)(=O)O)NC1=O)[C@@H](C)O` [Example 3, Penta (Nγ-Bis-Sulfomethyl) DAB1,3,5,8,9 Polymyxin E1-i], the “MIC A. baumannii ColistinS” value in experiment [1] (colistin-sensitive) came out at 4 µg/mL (≈ 1.9 µM). In experiment [2] (ATCC25922), the “MIC E. coli ATCC 25922” value came to 8 µg/mL (≈ 3.79 µM). For the same molecule, in experiment [3], the “MIC K. pneumonia #3010” value stood at 16 µg/mL (≈ 7.58 µM). The “MIC P. aeruginosa ATCC 27853” value in experiment [4] (ATCC27853) is 8 µg/mL (≈ 3.79 µM).

Regarding `CC[C@H](C)CCCCC(=O)N[C@@H](CCN(CS(=O)(=O)O)CS(=O)(=O)O)C(=O)N[C@H](C(=O)N[C@@H](CCN)C(=O)N[C@H]1CCNC(=O)[C@H]([C@@H](C)O)NC(=O)[C@H](CCN(CS(=O)(=O)O)CS(=O)(=O)O)NC(=O)[C@H](CCN)NC(=O)[C@H](CC(C)C)NC(=O)[C@@H](CC(C)C)NC(=O)[C@H](CCN(CS(=O)(=O)O)CS(=O)(=O)O)NC1=O)[C@@H](C)O` [PE1-(SM)6^1,5, 9, Tri (Nγ-Bis-Sulfomethyl) DAB1,5,9 Polymyxin E1], the “MIC E. coli ATCC 25922” value in experiment [2] (ATCC25922) was 8 µg/mL (≈ 4.61 µM). For the same molecule, in experiment [4] (ATCC27853), the “MIC P. aeruginosa ATCC 27853” value came out at 8 µg/mL (≈ 4.61 µM).

`CC[C@H](C)CCCCC(=O)N[C@@H](CCN(CS(=O)(=O)O)CS(=O)(=O)O)C(=O)N[C@H](C(=O)N[C@@H](CCN)C(=O)N[C@H]1CCNC(=O)[C@H]([C@@H](C)O)NC(=O)[C@H](CCN(CS(=O)(=O)O)CS(=O)(=O)O)NC(=O)[C@H](CCN(CS(=O)(=O)O)CS(=O)(=O)O)NC(=O)[C@H](CC(C)C)NC(=O)[C@@H](CC(C)C)NC(=O)[C@H](CCN(CS(=O)(=O)O)CS(=O)(=O)O)NC1=O)[C@@H](C)O` [PE1-(SM)8^1,5,8, 9, Tetra (Nγ-Bis-Sulfomethyl) DAB1,5,8,9 Polymyxin E1]: the “MIC E. coli ATCC 25922” value in experiment [2] (ATCC25922) was 8 µg/mL (≈ 4.16 µM). In addition, the “MIC P. aeruginosa ATCC 27853” value in experiment [4] (ATCC27853) was 8 µg/mL (≈ 4.16 µM).

On to Gentamicin [reference compound], for which the “MIC E. coli DSA 443” value with Escherichia coli DSA443 is more than 32 µg/mL. The “MIC A. baumannii ColistinS” value in experiment [1] (setting [5]) is more than 32 µg/mL. In experiment [2] (setting [5]), the “MIC E. coli ATCC 25922” value was 1 µg/mL. Also, the “MIC of positive control against quality control limit” value in experiment [2] (limit 0.25-1 μg/mL for E. coli ATCC 25922) and in experiment [4] (limit 0.5-2 μg/mL for P. aeruginosa ATCC27853) was “within the limit” in each case. The “MIC K. pneumonia #3010” value in experiment [3] (setting [5]) worked out at 0.125 µg/mL. For the same molecule, the “MIC P. aeruginosa ATCC 27853” value in experiment [4] (setting [5]) was found to be 1 µg/mL.
